Patent publication US20250090174A1, “LEFT ATRIAL APPENDAGE CLOSURE DEVICE WITH DRUG-ELUTING COMPOSITION” (BOSTON SCIENTIFIC SCIMED, INC., priority 2023, published 2025)

Test system: heparinized bovine blood
Test: In-vitro clot weight on drug coated PET fabric disks in heparinized bovine blood
Details: PVDF-HFP/drug 90/10 dip coated PET disks, 37° C., ACT about 190, FIG. 18
Protocol: A solution of PVDF-HFP and DOAC (direct oral anticoagulant) was prepared in 80/20 acetone/DMSO (wt/wt). The PVDF-HFP drug ratio was 90/10 (wt/wt) and the solution solids was 0.7%. […] diameter WM PET fabric disks were dip coated into the polymer/drug solution at a dip speed of […]. The coated disks were dried for […] at 125° C. in a convection oven. The drug coated disks and PVDF-HFP only control disks were placed in cups containing heparinized bovine blood adjusted to an ACT of about 190 using protamine. The cups were placed on an orbital shaker incubator at 37° C. and disks were removed at various time points and imaged. The disks were then dried and weighed to determine clot wt.

Compound | thrombus (clot weight) compared to the PVDF-HFP coated control
COc1ccc(-n2nc(C(N)=O)c3c2C(=O)N(c2ccc(N4CCCCC4=O)cc2)CC3)cc1 [Apixaban] | significantly less thrombus
O=C(NC[C@H]1CN(c2ccc(N3CCOCC3=O)cc2)C(=O)O1)c1ccc(Cl)s1 [Rivaroxaban, 5-Chloro-N-({(5S)-2-oxo-3-[4-(3-oxo-4-morpholinyl)phenyl]-1,3-oxazolidin-5-yl}methyl)-2-thiophenecarboxamide] | significantly less thrombus
